According to patent US20190337978A1, “CRYSTALLIZATION METHODS USING FUNCTIONALIZED NANOPOROUS MATRICES AND RELATED SYSTEMS” (Massachusetts Institute of Technology, priority 2018, published 2019):
≈ marks a conversion by molar mass, not a printed value. Counter-ions that a name gives are not always drawn.

Assays:
physchem = details: 25 °C, thermodynamic from solid
[1] = Capillary XRPD with Zorbax, critical minimum concentration for crystallization; details: isopropyl alcohol solutions in capillaries containing functionalized Zorbax
[2] = Batch crystallization with Zorbax, mother liquor concentration via HPLC; type: physicochemical; details: after batch crystallization of saturated isopropyl alcohol solution with Zorbax, stirred 6 h at 25° C.; effective solubility

CC(=O)Nc1ccc(O)cc1 [Acetaminophen] showed a solubility (physchem; water) of 15.5 mg/mL (≈ 103 mM).
In the case of CN(C)CCOC(c1ccccc1)c1ccccc1 [Diphenhydramine hydrochloride], the “Concentration range from XRPD (critical minimum concentration for crystallization to occur)” value (“Concentration range from XRPD” below) [1] is reported as 25000 to 27000 µg/mL.
In the case of CC(=O)Oc1ccccc1C(=O)O [Aspirin], the Mother liquor concentration [2] is reported as 66.8 mg/mL, the solubility (physchem; organic solvent or mixture) is reported as 90 mg/mL (≈ 500 mM) and the “Concentration range from XRPD” value [1] is reported as 65000 to 70000 µg/mL.
In the case of NC(=O)c1cccnc1 [Nicotinamide], the Mother liquor concentration [2] is reported as 33.2 mg/mL, the solubility (physchem; organic solvent or mixture) is reported as 46.5 mg/mL (≈ 381 mM) and the “Concentration range from XRPD” value [1] is reported as 30000 to 35000 µg/mL.
